These results are taken from patent US6503882B2, “Treatment of HIV” (Trustees of Tufts College, priority 1997, dated 2003).

For series [1], the system named is PBMC from HIV-infected patients. As to the kind of experiment: Proliferation of PBMC from HIV-infected individuals in vitro, 3H thymidine incorporation. The class given is cell-based, human. The settings on record: for stimulation of proliferation (incorporation of 3H thymidine, cpm): very low doses, FIG. 1. The procedure:
Peripheral blood mononuclear cells (PBMC) were obtained by standard methods from HIV-infected individuals, and from uninfected individuals. Varying dosages of KBP or VBP were contacted with the PBMC in vitro, and stimulation of proliferation was measured by incorporation of ^3H thymidine (cpm).

The mark [2] stands for this setting: relatively low doses (10^−7M), FIG. 2.

As for `NCCCC[C@H](N)C(=O)N1CCC[C@H]1B(O)O` [Lys-boroPro], the “proliferation of PBMC of HIV-infected patients” value in series [1] (higher doses (10^−4M), FIG. 2) is on record as “did not have this effect”; in series [1] (setting [2]), “caused proliferation”. Besides, in series [1], the “stimulation of proliferation (incorporation of 3H thymidine, cpm)” value was “stimulated proliferation”.
`CC(C)[C@H](N)C(=O)N1CCC[C@H]1B(O)O` [Val-boroPro]: the “stimulation of PBMC of HIV-infected patients” value in series [1] (concentrations of 10^−6, FIG. 2) is recorded as “there was stimulation”. Besides, the “proliferation of PBMC of HIV-infected patients” value in series [1] (higher doses (10^−4M), FIG. 2) is listed as “did not have this effect”. Also, in series [1] (setting [2]), the “proliferation of PBMC of HIV-infected patients” value is recorded as “caused proliferation”. Besides, the “stimulation of proliferation (incorporation of 3H thymidine, cpm)” value in series [1] is reported as “stimulated proliferation”. Also, in the series on T-cells, the cytotoxicity result is given as “approximately 50%”, the “cytotoxicity to T-cells” value is “highly cytotoxic” and the “toxicity observed in vitro” value is reported as “greater than 80%”.
